Test: xn = mol fraction of the nth substance listed
Conditions: 101 kPa

viscosity (313.15 K, x1 = 0.25) [mPa·s] | viscosity (318.15 K, x1 = 0.25) [mPa·s] | viscosity (328.15 K, x1 = 0.25) [mPa·s] | viscosity (333.15 K, x1 = 0.25) [mPa·s] | Structure (SMILES) | viscosity (298.15 K, x1 = 0.333) [mPa·s] | viscosity (303.15 K, x1 = 0.333) [mPa·s] | viscosity (308.15 K, x1 = 0.333) [mPa·s] | viscosity (313.15 K, x1 = 0.333) [mPa·s] | viscosity (318.15 K, x1 = 0.333) [mPa·s] | viscosity (323.15 K, x1 = 0.333) [mPa·s]
– | – | – | – | CC[N+](CC)(CC)CC.[Cl-] + CC(=O)O | 34.46 | 27.81 | 22.91 | 19.51 | 16.53 | 13.93
53.81 | 40.74 | 25.16 | 20.33 | C[P+](c1ccccc1)(c1ccccc1)c1ccccc1.[Br-] + OCCO | – | – | – | – | – | –

— a compilation of properties of binary mixtures (doi:10.1016/j.molliq.2020.113127)
